The target of one test is EGFR (UniProt P00533).
Test [1] concerns the target EGFR (human) (UniProt P00533). As to conditions: a2780.
The target of test [2] is EGFR (human) (UniProt P00533). As to conditions: sk-br-3.
Test [3] deals with EGFR (human) (UniProt P00533). Particulars: a2780ddp.
Test [4] has as its target EGFR (human) (UniProt P00533). As to conditions: mda435.
Test [5] concerns the target EGFR (human) (UniProt P00533). As to conditions: a431.
In test [6] the target is EGFR (human) (UniProt P00533). As to conditions: 3t3.

Consider seven compounds from the Kinase Knowledgebase extract (Sharma et al. 2016).

Values after ≈ are worked out from the molar mass of the structure shown. Bounds are passed on as bounds.

As a reminder, the IC50 is the concentration at which inhibition is half-maximal. Low values mean inhibition by little substance, high ones a need for much substance.

Chain of EGFR (human) (P00533 whole entry, looked up): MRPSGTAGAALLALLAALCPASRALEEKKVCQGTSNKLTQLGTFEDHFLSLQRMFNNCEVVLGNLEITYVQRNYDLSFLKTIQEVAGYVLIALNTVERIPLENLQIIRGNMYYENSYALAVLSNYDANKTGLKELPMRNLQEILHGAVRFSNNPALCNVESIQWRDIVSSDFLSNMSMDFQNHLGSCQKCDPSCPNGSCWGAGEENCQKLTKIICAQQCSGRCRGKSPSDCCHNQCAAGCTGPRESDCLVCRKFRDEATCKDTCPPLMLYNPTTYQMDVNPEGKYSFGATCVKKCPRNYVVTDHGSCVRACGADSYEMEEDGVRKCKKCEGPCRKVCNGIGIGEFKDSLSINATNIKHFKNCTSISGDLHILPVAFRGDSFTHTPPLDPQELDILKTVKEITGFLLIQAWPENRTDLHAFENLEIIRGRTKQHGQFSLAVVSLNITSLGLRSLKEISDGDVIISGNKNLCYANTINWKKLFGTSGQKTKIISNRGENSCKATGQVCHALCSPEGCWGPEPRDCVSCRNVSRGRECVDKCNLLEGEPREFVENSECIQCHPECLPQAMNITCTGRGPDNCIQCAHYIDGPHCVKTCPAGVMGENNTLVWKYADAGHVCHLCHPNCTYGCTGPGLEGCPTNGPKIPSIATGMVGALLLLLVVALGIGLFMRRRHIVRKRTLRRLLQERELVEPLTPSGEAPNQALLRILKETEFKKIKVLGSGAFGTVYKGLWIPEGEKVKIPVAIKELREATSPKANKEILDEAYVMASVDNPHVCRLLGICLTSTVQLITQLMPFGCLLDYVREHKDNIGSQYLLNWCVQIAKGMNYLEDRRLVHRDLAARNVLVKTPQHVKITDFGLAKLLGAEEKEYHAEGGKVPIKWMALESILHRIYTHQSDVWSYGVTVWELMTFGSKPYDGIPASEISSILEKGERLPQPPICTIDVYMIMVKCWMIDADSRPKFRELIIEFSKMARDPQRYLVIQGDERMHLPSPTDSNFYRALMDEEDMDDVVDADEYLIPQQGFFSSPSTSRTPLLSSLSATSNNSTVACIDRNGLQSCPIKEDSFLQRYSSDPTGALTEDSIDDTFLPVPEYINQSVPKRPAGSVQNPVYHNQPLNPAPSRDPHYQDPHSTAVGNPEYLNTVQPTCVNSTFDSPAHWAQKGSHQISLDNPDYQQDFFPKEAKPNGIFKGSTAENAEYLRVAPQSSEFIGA
Chain of EGFR (P00533 whole entry, looked up): as above

Consider `COc1ccc(CNc2cc3c(Nc4cccc(Br)c4)c(C#N)cnc3cn2)cc1`, for which the half-inhibitory concentration (IC50) at EGFR was greater than 100 nM.

For `CCOc1ccc2ncc(C#N)c(Nc3cccc(Br)c3)c2n1`, the IC50 against EGFR is greater than 10000 nM. Compound `CC#CC(=O)Nc1cc2c(Nc3cccc(Br)c3)c(C#N)cnc2cn1` yielded a 50% inhibitory concentration (IC50) on EGFR (human) [1] of 0.06 µg/mL (≈ 0.148 µM). For `N#Cc1cnc2cnc(NCCN3CCOCC3)cc2c1Nc1cccc(Br)c1`, the figures for the concentration for half-maximal inhibition (IC50) against EGFR (human) [2] and against EGFR (human) [3] were 0.4 µg/mL (≈ 0.882 µM) and 0.8 µg/mL (≈ 1.76 µM), respectively. For `CNc1cc2c(Nc3cccc(Br)c3)c(C#N)cnc2cn1`, the IC50 at EGFR (human) [4] lay within 0.98 to 3.94 µg/mL (≈ 2.77 to 11.1 µM); at EGFR (human) [5] it was 0.209 to 0.31 µg/mL (≈ 0.59 to 0.875 µM); at EGFR (human) [1] it was 0.74 to 2.36 µg/mL (≈ 2.09 to 6.67 µM); on EGFR (human) [3], 0.43 to 2.25 µg/mL (≈ 1.21 to 6.34 µM). On to `CN(C)C/C=C/C(=O)Nc1cc2c(Nc3cccc(Br)c3)c(C#N)cnc2cn1`, for which the concentration for half-maximal inhibition (IC50) against EGFR (human) [6] is 0.272 to 0.373 µg/mL (≈ 0.602 to 0.826 µM). For the compound `CN(C)C/C=C/C(=O)Nc1cnc2ncc(C#N)c(Nc3cccc(Br)c3)c2c1`, the IC50 against EGFR was 800 nM.
